# Source: paper PMC6879718, “Mycobacterial OtsA Structures Unveil Substrate Preference Mechanism and Allosteric Regulation by 2-Oxoglutarate and 2-Phosphoglycerate” (mBio, 2019)
# Experiments:
# [1] = target: T1, M. thermoresistibile OtsA L319I (Mycolicibacterium thermoresistibile, UniProt G7CGT2, L319I); experiment: OtsA kinetic parameters, continuous colorimetric coupled assay (L319I); format: biochemical, Mycobacterium thermoresistibile
# T1 sequence (G7CGT2 1-486 L319I): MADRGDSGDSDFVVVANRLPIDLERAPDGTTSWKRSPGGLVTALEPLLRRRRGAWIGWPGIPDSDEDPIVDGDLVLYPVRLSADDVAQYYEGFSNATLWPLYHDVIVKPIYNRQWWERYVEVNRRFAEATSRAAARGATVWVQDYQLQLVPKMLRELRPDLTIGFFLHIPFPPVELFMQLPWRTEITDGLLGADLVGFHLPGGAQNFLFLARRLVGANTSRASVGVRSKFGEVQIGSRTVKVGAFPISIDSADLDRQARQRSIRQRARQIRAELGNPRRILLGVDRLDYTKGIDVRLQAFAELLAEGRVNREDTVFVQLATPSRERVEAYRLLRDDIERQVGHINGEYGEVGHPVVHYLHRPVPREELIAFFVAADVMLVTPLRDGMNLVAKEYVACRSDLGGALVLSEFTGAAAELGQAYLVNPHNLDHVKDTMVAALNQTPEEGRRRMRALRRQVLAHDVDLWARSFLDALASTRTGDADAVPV
# [2] = target: T2, M. thermoresistibile OtsA V363F (Mycolicibacterium thermoresistibile, UniProt G7CGT2, V363F); experiment: OtsA kinetic parameters, continuous colorimetric coupled assay (V363F); format: biochemical, Mycobacterium thermoresistibile
# T2 sequence (G7CGT2 1-486 V363F): T1 sequence (G7CGT2 1-486 L319I)
# [3] = target: T3, M. thermoresistibile OtsA L319I, V363F, E367L (Mycolicibacterium thermoresistibile, UniProt G7CGT2, E367L/L319I/V363F); experiment: OtsA kinetic parameters, continuous colorimetric coupled assay (L319I, V363F, E367L); format: biochemical, Mycobacterium thermoresistibile; settings: triple mutant
# T3 sequence (G7CGT2 1-486 L319I/V363F/E367L): T1 sequence (G7CGT2 1-486 L319I)
# MtrOtsA [4] = target: T4, MtrOtsA (Mycolicibacterium thermoresistibile, UniProt G7CGT2); experiment: biochemical
# T4 sequence (G7CGT2 1-486): T1 sequence (G7CGT2 1-486 L319I)
# [5] = target: M. thermoresistibile OtsA wild type (Mycolicibacterium thermoresistibile, UniProt G7CGT2); experiment: OtsA kinetic parameters, continuous colorimetric coupled assay (wild type); format: biochemical, Mycobacterium thermoresistibile
# MtrOtsA [6] = target: T4, MtrOtsA; settings: ITC, 25°C, 60 μM OtsA, 1 mM ligand
SMILES,fold increase in Km^app compared to the wild type [1],fold increase in Km^app over the wild type [2],fold increase in Km^app compared to the wild type [3],Kd (MtrOtsA [4]),"turnover, fold lower than ADP-glucose [5]",heat of binding (MtrOtsA [6])
Nc1ncnc2c1ncn2[C@@H]1O[C@H](COP(=O)(O)OP(=O)(O)O[C@H]2O[C@H](CO)[C@@H](O)[C@H](O)[C@H]2O)[C@@H](O)[C@H]1O [ADP-glucose],~3 fold,~2.5 fold,~5 fold,27.2 ± 2.66 µM,,
Nc1nc2c(ncn2[C@@H]2O[C@H](COP(=O)(O)OP(=O)(O)O[C@H]3O[C@H](CO)[C@@H](O)[C@H](O)[C@H]3O)[C@@H](O)[C@H]2O)c(=O)[nH]1 [GDP-glucose],,~2.5 fold,,,5 fold,no observable heat of binding
